Source: paper PMC5854746 (Cancer Chemotherapy and Pharmacology, 2018)
Where “and” joins values, the source holds several entries; their conditions need not be identical. Equal values may be shown once. Entries after “also recorded” stand apart in the source; their conditions may differ. Read-outs that look alike come from different tables or passages of the source.

Columns and labels:
[1] = cited from earlier work
[2] = test system: plasma proteins, mainly albumin and α-1 acid glycoprotein; conditions: cited from earlier work
[3] = oral; 9 (ref 1, 11); cited from earlier work
[4] = Optimized value, updated based on literature data ref 1, 32; cited from earlier work
[5] = clinical; conditions: human, plasma; for clearance: Cltot; for half-life: T 1/2el; for Vd: V d; for AUC(0-t): 100 mg p.o.
Source text: Patients eligible for this phase 1b study suffered from histologically or cytologically documented adenocarcinoma of the pancreas with locally advanced not radically resectable or metastatic disease. […] All concomitant medication was reported and the intake of drugs inhibiting or inducing CYP3A4 was prohibited during the study, along with medication specifically contraindicated to one of the three study drugs [1, 23, 24]. All patients were asked to keep a diary during their treatment, containing co-medication and health status to retrace possible interactions and treatment failures.
Patients had been informed about the aim of this investigation and had given their written consent.
For the pharmacokinetic analysis of plasma concentration data on day 1, Phoenix WinNonlin version 6.2.1 software (Pharsight Corporation, a Certara™ company) was used to calculate the PK parameters Cpeak, Ctrough, Tmax, AUC0–24 as well as the volume of distribution (Vd), total body clearance (Cltot) and terminal half-life (T1/2el). […] From day 2 until day 8, the trough and peak concentrations were analyzed, but only the trough concentrations were evaluated until the end of the study. The parameters were calculated as arithmetic mean ± SD and the range (min–max) was calculated for comparison to the simulation output.

[6] = Day 3, observed, 100 mg p.o. q.d., n=26
[7] = Day 6 (steady state), observed, 100 mg p.o. q.d., n=26
[8] = co-administered ARAs, study population
[9] = oral, mean ± SD, Day 1, observed, n=26, calculated with a bioavailability of 60%
[10] = oral, min–max, Day 1, observed, n=26
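For C last (trough at 24 h), mean ± SD in this document: plasma pharmacokinetics in a phase 1b study of patients with locally advanced or metastatic pancreatic adenocarcinoma.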
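For C peak, mean ± SD in this document: plasma pharmacokinetics in a phase 1b study of patients with locally advanced or metastatic pancreatic adenocarcinoma.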
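For C trough, mean ± SD in this document: plasma pharmacokinetics in a phase 1b study of patients with locally advanced or metastatic pancreatic adenocarcinoma.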
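For T max, median in this document: plasma pharmacokinetics in a phase 1b study of patients with locally advanced or metastatic pancreatic adenocarcinoma.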

Compound: C#Cc1cccc(Nc2ncnc3cc(OCCOC)c(OCCOC)cc23)c1 [erlotinib]
- Solubility in water ([1]; free base): only very slightly soluble in water
- Biopharmaceutics Classification System (BCS) class ([1]; low solubility, high permeability): class II
- pKa ([1]; weak base, limited solubility at pH above it): 5.4
- Bound to plasma proteins [2]: approximately 95%
- Bioavailability (estimated) [3]: 60%
- Basic pKa [4]: 5.4
- Intrinsic solubility [4]: 8.9 µg/mL
- C peak, mean ± SD (Day 1, observed, 100 mg erlotinib p.o. q.d., patients n=26, arithmetic mean): 0.84 µg/mL and 0.84 ± 0.54 µg/mL
- C last (trough at 24 h), mean ± SD (Day 1, observed, 100 mg p.o. q.d., n=26): 330 ± 290 ng/mL
- T max, median (Day 1, observed, 100 mg p.o., n=26): 2.00 h
- C peak, mean ± SD [6]: 1.04 ± 0.62 µg/mL
- C trough, mean ± SD [6]: 450 ± 370 ng/mL
- C peak, mean ± SD [7]: 1.38 µg/mL and 1.38 ± 0.66 µg/mL
- C trough, mean ± SD [7]: 720 ng/mL and 720 ± 530 ng/mL
- Mean trough concentration ± SD (Pat.3, weeks 1–50, N=50, 100 mg q.d.): 0.89 ± 0.68 µg/mL
- Mean trough concentration ± SD (Pat.4, weeks 1–8, N=7, 100 mg q.d.): 0.66 ± 0.27 µg/mL
- Mean trough concentration ± SD (Pat.5, co-medication of acid reducing agents, weeks 1–4, N=4, 100 mg q.d.): 0.37 ± 0.09 µg/mL
- Mean trough concentration ± SD (Pat.6, weeks 1–8, N=8, 100 mg q.d.): 1.78 ± 0.74 µg/mL
- Mean trough concentration ± SD (Pat.7, weeks 1–9, N=9, 100 mg q.d.): 1.20 ± 0.51 µg/mL
- Reduction of AUC0–24 [8]: 52%
- Reduction of Cmax [8]: 56%
- Patients with concentrations below the activity threshold of 0.5 µg/ml (during the first week): 7%
- Patients that never reached the threshold of 0.5 µg/ml (first week of erlotinib therapy): 2 of the 26 patients
- Patients with Ctrough values below the activity threshold (long-term analysis, all received ARAs concomitantly): 5 of the 10 patients
- Accumulation of erlotinib in plasma (long-term monitoring up to 50 weeks, 100 mg q.d.): did not show any significant accumulation; also recorded: did not lead to drug accumulation
- Patients that did not reach the threshold of 0.5 µg/ml (within 24 h after the first administration): 10 of the 26 patients
- clearance [5, 9]: 91.8 mL/min
- clearance [5, 10]: 7.83 to 502 mL/min
- concentration at 24 h ([5]; oral, Mean erlotinib trough concentrations calculated for each patient, range, long-term study, 10 patients, 100 mg q.d.): 60 to 1780 ng/mL
- concentration at 24 h ([5]; oral, Mean trough concentration ± SD, Pat.1, weeks 1–15, N=10, 100 mg erlotinib q.d.): 1670 ± 440 ng/mL
- concentration at 24 h ([5]; oral, Mean trough concentration ± SD, Pat.10, co-medication of acid reducing agents, weeks 1–11, N=11, 100 mg q.d.): 160 ± 60 ng/mL
- concentration at 24 h ([5]; oral, Mean trough concentration ± SD, Pat.2, co-medication of acid reducing agents, weeks 1–9, N=9, 100 mg q.d.): 160 ± 40 ng/mL
- concentration at 24 h ([5]; oral, Mean trough concentration ± SD, Pat.8, co-medication of acid reducing agents, weeks 1–16, N=16, 100 mg q.d.): 270 ± 380 ng/mL
- concentration at 24 h ([5]; oral, Mean trough concentration ± SD, Pat.9, co-medication of acid reducing agents, weeks 1–50, N=47, 100 mg q.d.): 60 ± 40 ng/mL
- half-life ([5]; oral, mean ± SD, Day 1, observed, n=26): 18.7 ± 13.1 h
- half-life [5, 10]: 4.1 to 59 h
- concentration at 24 h ([5]; oral, Trough concentration min–max, Pat.1, weeks 1–15, N=10, 100 mg erlotinib q.d.): 770 to 2200 ng/mL
- concentration at 24 h ([5]; oral, Trough concentration min–max, Pat.10, co-medication of acid reducing agents, weeks 1–11, N=11, 100 mg q.d.): 70 to 310 ng/mL
- concentration at 24 h ([5]; oral, Trough concentration min–max, Pat.8, co-medication of acid reducing agents, weeks 1–16, N=16, 100 mg q.d.): 20 to 1310 ng/mL
- concentration at 24 h ([5]; oral, Trough concentration min–max, Pat.9, co-medication of acid reducing agents, weeks 1–50, N=47, 100 mg q.d.): 10 to 160 ng/mL
- concentration at 24 h ([5]; oral, Trough plasma concentrations, range, long-term assessment (up to 50 weeks), 100 mg q.d., 10 patients): 10 to 2400 ng/mL
- Vd [5, 9]: 97.9 ± 61.7 L
- Vd [5, 10]: 18 to 268 L
- Tmax ([5]; po, 100 mg): 1 to 8 h
- AUC(0-t) ([5]; po, 100 mg, AUC0–24, mean ± SD, Day 1, observed, n=26): 12500 ± 9380 ng·h/mL
- AUC(0-t) ([5]; po, 100 mg, AUC0–24, min–max, Day 1, observed, n=26): 1230 to 36400 ng·h/mL
- concentration at 24 h ([5]; po, C last (trough at 24 h), mean ± SD, Day 1, observed, 100 mg p.o. q.d., n=26): 330 ng/mL
- concentration at 24 h ([5]; po, C last (trough at 24 h), min–max, Day 1, observed, 100 mg p.o. q.d., n=26): 40 to 1220 ng/mL
